# In patent EP1792623B1, “Use of extracts and constituents of leontopodium as enhancers of cholinergic function” (Leopold-Franzens-Universität Innsbruck, priority 2005, dated 2007):
# Experiments:
# [1] = system: release of ACh in rat brain; assay: ACh release in nucleus accumbens, push-pull technique, after i.c.v. application; assay type: in vivo, Sprague-Dawley rats; conditions: 2 µmol i.c.v.
# From the text: Surgery and push-pull technique: Protocols of experiments were approved by the Bundesministerium für Wissenschaft, Forschung and Kunst, Austria, Kommission für Tierversuchsangelegenheitem. Sprague-Dawley rats (250-280 g) were anaesthetized with urethane 1.2 g/kg. i.p. The head was fixed in a stereotaxic frame and a push-pull cannula (outer tubing: o.d. 0.75 mm, i.d. 0.41 mm; inner tubing: o.d. 0.26 mm, i.d. 0.13 mm) was mounted on a microdrive. This was stereotaxically inserted through a hole in the skull into the nucleus accumbens (coordinates, mm from bregma: AP, +1.2, L, +2.5; V, -7.8) (Paxinos G. Watson H. (1998) The rat brain in stereotaxic coordinates, 4th edn. Academic Press, Sidney.). […] After 1 h of the cannula insertion the samples were collected into tubes kept at -20° C in time periods of 10 min and then stored at -80°C until acetylcholine (ACh) was determined. […]
# Determination of acetylcholine (ACh): ACh content in the samples was determined by HPLC with a cation-exchanging analytical column and a post-column reactor followed by electrochemical detection (Damsma et al, 1997; Prast et al; 1998). […] The peroxide was electrochemically detected by a UniJet platin electrode (3mm) at +500 mV with an amperometric detector (BAS LC-4, Bioanalytical Systems, West Lafayette, IN, USA). […] ACh was quantified with external standards that were injected at the beginning and the end of the analysis. […]
# [2] = system: acetylcholinesterase; assay type: biochemical; conditions: c = 100 mM, after 60 min, in comparison to medium control
# Description: Experiments are carried out applying Ellman's method in a 96-well microplate assay described by Ingkaninan et al, Journal of Chromatography A 827 (2000) p. 6173 and Rhee et al, Journal of Chromatography A 915 (2001) p. 217-223. In addition to buffer A described above, a buffer containing 0.1 M NaCl and 0.02 M MgClx2.6 H2O in buffer A is used for preparing a 3 mM solution of DTNB. For the microplate assay the substrate ATCI is dissolved 15 mM in water (HPLC grade). The enzyme stock solution is diluted with buffer A to get 0.22 U/ml. In the 96-well plates, 25 µl of 15 mM ATCl, 125 µl of 3 mM DTNB, 50 µl of buffer A, and 25 µl of sample (10 mM in MeOH, respectively DMSO (dimethylsulfoxide), diluted ten times with buffer A) are added. […] […] The absorbance of the product (2-nitrobenzoate-5-mercapto thioline) is measured at 405 nm with a Chameleon 5025 (Hidex, Finland) microplate reader 0, 15, 30, 45 and 60 minutes after adding 25 µl of 0.22 U/ml acetylcholinesterase-solution to the reaction mixture. All experiments are performed 4 times (n=4) and the data are statistically processed using the SPSS 11.5 program package. Percentage of inhibition is calculated by comparing the rates for the sample to the blank (10% MeOH, resp. DMSO, in buffer).
substance,measurement,setting,value
14-acetoxy-isocomene,release of ACh in rat brain,[1],significantly enhance the concentration of neurotransmitters in the CNS
same,inhibition (%),[2],1.4 ± 8.1%
